Consider 2 molecules from patent EP0010209A1, “N-Benzoyl-retinyl amines, process for their preparation, pharmaceutical compositions comprising them and the use of these compounds for the therapy and prophylaxis of precanceroses and carcinomas of the skin” (BASF Aktiengesellschaft, priority 1978, dated 1980).

The test system of data set [1] is Brustkrebs bei Ratten. Put plainly: Prevention of nitrosomethylurea-induced mammary cancer in rats. It counts as in vivo, Sprague-Dawley Ratten. The settings on record: nitrosomethylurea 50 mg/kg i.v., 2 mmol/kg diet from day 3, 12 weeks.
Data set [2] deals with durch Vitamin A-Hypovitaminose keratinisierten Hamstertrachealgewebe. The settings on record: hamster tracheal tissue keratinised by vitamin A deficiency; active only at this concentration; cited from earlier work.
Data set [3] has as its system tracheal cartilage. The note with it: toxicity to tracheal cartilage in vitro; from Nature 263, 110-113 (1976); read-out: celluläre Toxizitätsschwelle (Konzentration); cited from earlier work.

Structures are written as SMILES.

For the molecule `CC1=C(/C=C/C(C)=C/C=C/C(C)=C/CNC(=O)c2ccccc2)C(C)(C)CCC1` [Benzoyl-retinylamin, N-Benzoyl-all-E-Retinylamin], the “Zahl der Tumoren” value in data set [1] (all tumours) is on record as 10. Moreover, the “Zahl der Tumoren davon größer als 1,0 g” value in data set [1] (tumours > 1,0 g) came out at 2. The “Zahl der Tumoren größer als 0,100 g” value in data set [1] (tumours > 0,100 g) is recorded as 4.
With `CC(=O)NCC=C(C)C=CC=C(C)C=CC1=C(C)CCCC1(C)C` [N-Acetyl-retinylamin], the “Konzentration, in der Aktivität vorliegt” value in data set [2] is 9.10^-9 molar. Moreover, the MCC in data set [3] is above 10 µM.
